This note sets out measurements from patent publication US4500533A, “2,4,5-Triaryl pyrimidines and a method of treating pain, fever, thrombosis, inflammation and arthritis” (Eli Lilly and Company, priority 1983, dated 1985).

In test [1] the test system is adjuvant-induced arthritis. As to the kind of experiment: Established adjuvant-induced arthritis test in rats (uninjected hind paw swelling). The test is classed as in vivo, male Lewis-Wistar rats. The following applies: AUC of mean uninjected paw volumes.
In a further test the test system is Mouse Writhing. As to the kind of experiment: mouse writhing assay (analgesic activity). The following applies: po, p.o. by gavage in corn oil-acacia emulsion (5%), three hours before i.p. acetic acid (0.60 percent), 10 minute observation starting five minutes after acetic acid, read-out: Mouse Writhing ED50 (dose required to inhibit induced writhing by fifty percent). In kind it is in vivo, Cox standard strain albino male mice. The source says: The analgesic activity of a number of compounds provided by this invention has been determined in the standard mouse writhing assay. Writhing, which is characterized by contraction of the abdominal musculature, extension of the hindlegs, and rotation of the trunk, was induced in Cox standard strain albino male mice. The mice, weighing 18-24 grams, were fasted overnight and given the test compound by gavage in a corn oil-acacia emulsion (5%) three hours before writhing was induced by the intraperitoneal administration of acetic acid (0.60 percent). Each treatment group consisted of five mice. The total number of writhes for the treatment group was determined during a 10 minute observation starting five minutes after acetic acid administration. […] Table I which follows presents typical test results obtained with certain of the compounds of this invention. The results in the mouse writhing assay are presented as the effective oral (p.o.) dose in mg./kg. of the tested compound required to inhibit induced writhing in the test animals by fifty percent (ED50).
Background: Writhing tests count abdominal constrictions after an irritant is injected.

As for `COc1ccc(-c2cnc(-c3ccc(Cl)cc3)nc2-c2ccc(OC)cc2)cc1` [Example 1, 2-(4-Chlorophenyl)-4,5-bis(4-methoxyphenyl)pyrimidine], the “% Inhibition of Uninjected Paw Volume Inflammation, Days 14 through 30” value in test [1] (25 mg./kg. p.o. × 15, daily days 15-29, corn oil-acacia emulsion) is recorded as 74%. The ED50 – broadly, the dose at which the effect has come halfway, by size or by number of responders – in the test on Mouse Writhing came out at 0.99 mg/kg.
Consider `COc1ccc(-c2cnc(-c3ccc(F)cc3)nc2-c2ccc(OC)cc2)cc1` [Example 2, 2-(4-Fluorophenyl)-4,5-bis(4-methoxyphenyl)pyrimidine], for which, in test [1] (10 mg./kg. p.o. × 15, daily days 15-29, corn oil-acacia emulsion), the “% Inhibition of Uninjected Paw Volume Inflammation, Days 14 through 30” value is on record as 70%. Moreover, the ED50 with Mouse Writhing amounted to 1.48 mg/kg.
